Assays:
SUM159 = test: Broad cell line profiling, SUM159; type: cell-based; settings: Homo sapiens; SUM159, Breast Adenocarcinoma; read-out: PA IC50
Source text: • A panel of human and mouse cancer cell types used to assess the breadth of PA activity, including multiple therapy resistant metastatic mesenchymal tumor cell lines and primary glioblastoma patient-derived metastatic stem/tumor initiating cell populations.

human PBMCs = test: Immunoblot of caspase-3 in PBMCs; type: cell-based
Source text: FIG. 3. Initial SAR studies: Assessing activity of PAL functionalized PTMA analogs. […] (A) PA and Ph-PA show less toxic to healthy PBMCs compared to Jurkat cells. […] (B) Immunoblot of caspase-3 in Jurkat and PBMCs with indicated conditions.
• 1) Portimine A and its functional analogs show stereo-selective acute toxicity in cancer cells (FIG. 1). […] (B) Structure of portimine related analogs: phenyl-portimine A (Ph-PA, 36) and epi-portimine A (ePA, 38). Structure of fully functionalized portimine A-based epimeric probe pair: portimine A-diazirine-alkyne (PA-DA, 35-2) and epi-portimine A-diazirine-alkyne (ePA-DA, 35-1). (C) Cell viability analysis of portimine A and analogs. Jurkat cells were treated with increasing concentrations of portimine A and analogs for 24 hours. All presented data as mean of biological replicated experiments (n=3). […] Jurkat cells were treated with portimine A or analogs for 12 hours at 10 nM. […] Structurally related negative control ePA and PB are non-toxic in all cell types in the current concentrate range. PBMCs (25k per well), Jurkat (10k per well). […] Cell cycle analysis in Jurkat cells (FIG. 2). […] Cell lysates were fractionated by sucrose gradient (5-50%) and each fraction were analyzed by western blot. eIF6 levels increase in 60S subunit fraction and decrease in ribosome-free fractions after PA treatment. […]

HCC1806 = test: Cell toxicity in HCC1806 cells; type: cell-based, human; settings: 36-hour treatment

C=CC1=C[C@@H]2[C@@H]3O[C@]4(CC[C@H](O4)C(C)C[C@@H](O)C3=O)CC(O)C3=NCC[C@@]32CC1 (some centres unmarked) [PA, portimine A]
IC50 (SUM159): 1.9 nM | caspase-3 cleavage in human PBMCs (human PBMCs): but not human PBMCs

C#CCCC1(CCNC(=O)c2ccc(C3=C[C@@H]4[C@@H]5O[C@]6(CC[C@H](O6)C(C)C[C@@H](O)C5=O)CC(O)C5=NCC[C@@]54CC3)cc2)N=N1 (some centres unmarked) [PA-DA, portimine A-diazirine-alkyne]
caspase-3 cleavage in human PBMCs (human PBMCs): but not human PBMCs

C=CC1=C[C@@H]2[C@@H]3OC4(CC[C@H](O4)C(C)C[C@@H](O)C3=O)CC(=O)C3=NCC[C@@]32CC1 (some centres unmarked) [PB, portimine B]
cell toxicity in breast (HCC1806) cancer cell line (HCC1806): minimal effects

C=CC1=C[C@@H]2[C@@H]3O[C@]4(CC[C@H](O4)C(C)C[C@@H](O)C3=O)C[C@@H](O)C3=NCC[C@@]32CC1 (stereo partly drawn) [ePA, epi-portimine A]
cell toxicity in breast (HCC1806) cancer cell line (HCC1806): minimal effects

From patent US20260242390A1, “TOTAL SYNTHESES OF PORTIMINE A AND ANALOGUES THEREOF AS SMALL MOLECULE MODULATORS OF NMD3” (priority 2023, published 2026)
